Experimental data from patent publication US20260000710A1, “Novel Treatments for Cardiovascular Related Disease” (priority 2022, published 2026).

System: AIM+ and AIM− CD4+ T cells from peptide-expanded PBMCs
Assay: TCRβ CDR3 sequencing (immunoSEQ) of sorted AIM+ and AIM− CD4+ T cells;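 further: genomic DNA from sorted cells as template, amplification bias-controlled two-step multiplex PCR, APOB6 pool at 10 µg/ml per peptide, CD40 blocking antibody added before restimulation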
Type: cell-based, human
Conditions: for Log10 Odds Ratio: AIM+ vs AIM−
[1] = Donor 3, PBMCs expanded 14 days and restimulated 24 h with APOB6
[2] = Donor 6, PBMCs expanded 14 days and restimulated 24 h with APOB6
[3] = Donor 1, PBMCs expanded 14 days and restimulated 24 h with APOB6
[4] = Donor 4, PBMCs expanded 14 days and restimulated 24 h with APOB6
[5] = Donor 5, PBMCs expanded 14 days and restimulated 24 h with APOB6
[6] = Donor 2, PBMCs expanded 14 days and restimulated 24 h with APOB6

Method: To examine the clonotypic identities of autoreactive CD4^+ T cells, the hypervariable TCRβ DR3 region was sequenced using a DNA-based sequencing technique^42 (Adaptive Biotechnologies), which have been used to profile clonal populations of other self-antigen specific T cells^43. PBMCs from six HLA-typed donors (demographics and HLA-II alleles in Tables 5, 6) were expanded (14-days) and restimulated (24 h) with the APOB6 pool. To isolate viable responder and non-responder CD4^+ T cells from the same pool of stimulated PBMCs (schematic in FIG. 15A, gating strategy in FIG. 151B), the inventors used the AIM assay protocol (FIGS. 2A to 2D).
As a second control, unexpanded PBMCs (day 0 samples), sorted into naïve, central memory (TCM) and effector memory (TEM) CD4^+ T cells, were used (gating strategy in FIG. 15C). This allowed tracing the APOB6-specific AIM^+ T cell clones in naïve and memory T cell lineages. Genomic DNA, isolated from sorted AIM^− and AIM^+ Day 14 samples and naïve, TCM and TEM Day 0 samples from six donors, was used as the starting material for TCRVβ sequencing (schematic in FIG. 15A) using an optimized two-step, amplification bias-controlled multiplex-PCR-based approach^42,44 (immunoSEQ Human TCRB Assay, Adaptive Biotechnologies).
For isolation of APOB epitope-specific CD4^+ T cells, PBMCs were expanded with the APOB6pool (10 μg/ml per peptide). On Day 14, cultured cells were washed and re-stimulated with APOB6 (10 μg/ml) for 24 h (AIM assay protocol). 1 μg/ml of CD40 blocking antibody was added 15 min before stimulation. At the end of the stimulation period, cells were washed with FACS buffer (PBS w/o Ca/Mg, 2% FCS). Day 14 (APOB6 expanded and restimulated) and Day 0 (ex vivo samples with no in vitro stimulation) PBMC samples from six donors were resuspended in a staining master mix containing anti-human Fc-Block (Biolegend), fixable viability dye and antibodies against T cell and non-T cell (Dump) surface markers, activation markers and memory markers (antibody details in Table 4). Viability dye was used at 1:1000 dilution, antibodies were used at a final dilution of 1:100 (activation markers) and 1:200 (other extracellular markers). […] Gates were set based on unstimulated and PHA-L stimulated negative and positive controls, respectively. Antigen-specific AIM^+ and non-specific control AIM^− CD4^+ T cells from Day 14 samples and naïve (CD45RA^+CCR7^+), central memory (CD45RA^−CCR7^+, TCM) and effector memory (CD45RA^−CCR7^−, TEM) CD4^+ T cells from Day 0 PBMCs were sorted into HEPES-containing buffer (PBS with 2% FBS and 0.025 M HEPES) using BD FACSAria flow cytometry sorters. Acquired data was analyzed with FlowJo software.
Genomic DNA was extracted from sorted cells using QIAamp DNA Micro Kit (QIAGEN) and sent to Adaptive Biotechnologies for survey-level TCRβ sequencing (depth ˜60,000 reads) using their established immunoSEQ platform^7. Briefly, highly variable CDR3 regions on somatically rearranged human TCRβ chains were amplified with a two-step multiplex PCR approach using optimized set of primers that target the VDJ region spanning each unique CDR3B. A synthetic repertoire containing all possible V/J templates is used as a built-in control to quantify and correct PCR amplification biases. Processing of raw Illumina sequence reads, filtering, demultiplexing, clustering and mapping of CDR3 sequences and annotation of VDJ genes using IMGT database sequences were performed at Adaptive Biotechnologies and made available for download and analysis.

## CASIRPGLNYGYTF: TCRβ CDR3 clone, TCRBV06-05+TCRBJ01-02, Donor 3
Donor 3
  Log10 Odds Ratio: 1.08
[1]
  No. of clone-specific productive templates, AIM+ CD4+ T (Total 16700): 436
  No. of clone-specific productive templates, AIM− CD4+ T (Total 21770): 48

## CASRETGGAGELFF: TCRβ CDR3 clone, TCRBV06-05+TCRBJ02-02, Donor 6
Donor 6
  Log10 Odds Ratio: 2.71
[2]
  No. of clone-specific productive templates, AIM+ CD4+ T (Total 34927): 393
  No. of clone-specific productive templates, AIM− CD4+ T (Total 45364): 1

## CASRGQRDTGELFF: TCRβ CDR3 clone, TCRBV19-01+TCRBJ02-02, Donor 1
Donor 1
  Log10 Odds Ratio: 2.63
[3]
  No. of clone-specific productive templates, AIM+ CD4+ T (Total 21697): 367
  No. of clone-specific productive templates, AIM− CD4+ T (Total 49956): 2

## CASRKQGLGYTEAFF: TCRβ CDR3 clone, TCRBV02-01+TCRBJ01-01, Donor 4
Donor 4
  Log10 Odds Ratio: 2.45
[4]
  No. of clone-specific productive templates, AIM+ CD4+ T (Total 25796): 544
  No. of clone-specific productive templates, AIM− CD4+ T (Total 25928): 2

## CASRKTGSLYGYTF: TCRβ CDR3 clone, TCRBV27-01+TCRBJ01-02, Donor 5
Donor 5
  Log10 Odds Ratio: 11.80
[5]
  No. of clone-specific productive templates, AIM+ CD4+ T (Total 31354): 411
  No. of clone-specific productive templates, AIM− CD4+ T (Total 48987): 0

## CASRTIGQGSFNYGYTF: TCRβ CDR3 clone, TCRBV27-01+TCRBJ01-02, Donor 1
Donor 1
  Log10 Odds Ratio: 2.78
[3]
  No. of clone-specific productive templates, AIM+ CD4+ T (Total 21697): 257
  No. of clone-specific productive templates, AIM− CD4+ T (Total 49956): 1

## CASRTTTGFLSPLHF: TCRβ CDR3 clone, TCRBV27-01+TCRBJ01-06, Donor 3
Donor 3
  Log10 Odds Ratio: 1.86
[1]
  No. of clone-specific productive templates, AIM+ CD4+ T (Total 16700): 273
  No. of clone-specific productive templates, AIM− CD4+ T (Total 21770): 5

## CASSAMVEQPQHF: TCRβ CDR3 clone, TCRBV06-X+TCRBJ01-05, Donor 4
Donor 4
  Log10 Odds Ratio: 0.55
[4]
  No. of clone-specific productive templates, AIM+ CD4+ T (Total 25796): 1709
  No. of clone-specific productive templates, AIM− CD4+ T (Total 25928): 503

## CASSDDLAANVLTF: TCRβ CDR3 clone, TCRBV13-01+TCRBJ02-06, Donor 2
Donor 2
  Log10 Odds Ratio: 1.61
[6]
  No. of clone-specific productive templates, AIM+ CD4+ T (Total 18591): 411
  No. of clone-specific productive templates, AIM− CD4+ T (Total 7206): 4

## CASSELGLNTDTQYF: TCRβ CDR3 clone, TCRBV06-01+TCRBJ02-03, Donor 4
Donor 4
  Log10 Odds Ratio: 1.11
[4]
  No. of clone-specific productive templates, AIM+ CD4+ T (Total 25796): 2236
  No. of clone-specific productive templates, AIM− CD4+ T (Total 25928): 190

## CASSELGTRPNEQFF: TCRβ CDR3 clone, TCRBV10-01+TCRBJ02-01, Donor 4
Donor 4
  Log10 Odds Ratio: 2.76
[4]
  No. of clone-specific productive templates, AIM+ CD4+ T (Total 25796): 558
  No. of clone-specific productive templates, AIM− CD4+ T (Total 25928): 1

## CASSEMGLNTDTQYF: TCRβ CDR3 clone, TCRBV06-01+TCRBJ02-03, Donor 4
Donor 4
  Log10 Odds Ratio: 0.45
[4]
  No. of clone-specific productive templates, AIM+ CD4+ T (Total 25796): 1601
  No. of clone-specific productive templates, AIM− CD4+ T (Total 25928): 601

## CASSFTYDEQFF: TCRβ CDR3 clone, TCRBV07-09+TCRBJ02-01, Donor 5
Donor 5
  Log10 Odds Ratio: 1.66
[5]
  No. of clone-specific productive templates, AIM+ CD4+ T (Total 31354): 457
  No. of clone-specific productive templates, AIM− CD4+ T (Total 48987): 16

## CASSFVDSPESYEQYF: TCRβ CDR3 clone, TCRBV12-X+TCRBJ02-07, Donor 1
Donor 1
  Log10 Odds Ratio: 2.01
[3]
  No. of clone-specific productive templates, AIM+ CD4+ T (Total 21697): 486
  No. of clone-specific productive templates, AIM− CD4+ T (Total 49956): 11
